Results published in patent publication US20140329682A1, “METHOD OF CONTROLLING WEED IN A SUGAR CANE FIELD” (SUMITOMO CHEMICAL COMPANY, LIMITED, priority 2011, published 2014).

Columns and labels:
Assay type in all cases: in vivo
Amaranthus retroflexus [1] = assay: Herbicidal activity, soil surface spray after planting (Example 4); conditions: 3 cm stem cutting, one node, soil surface spray on date of planting, four weeks after treatment
Method: A 30 cm to 40 cm stem cutting of sugar cane is placed on a wet soil, and germination is stimulated. The stem cutting from which a bud has grown to about 1 cm is selected, and the length of the stem cutting is adjusted to be 3 cm so that the stem cutting has one node. A soil is packed into a plastic pot, and seeds of Amaranthus retroflexus are seeded thereon. The stem cutting of sugar cane is planted in the soil packed in the pot at a depth of 2 cm. […] Thereafter, the pot for a test is placed in a greenhouse.

Amaranthus retroflexus [2] = assay: Herbicidal activity, spray above weed one week before planting (Example 5); conditions: sprayed above weed three weeks after seeding, 3 cm stem cutting planted one week after treatment, four weeks after treatment
Method: (§1) A soil is packed into a plastic pot, and seeds of Amaranthus retroflexus are seeded thereon. Thereafter, the pot is placed in a greenhouse, and the weed is grown.
A 30 cm to 40 cm stem cutting of sugar cane is placed on a wet soil, and germination is stimulated. The stem cutting from which a bud has been grown to about 1 cm is selected, and the length of the stem cutting is adjusted to be 3 cm so that the stem cutting has one node.
(§2) The pot for a test is placed in a greenhouse.

Amaranthus retroflexus [3] = assay: Herbicidal activity, soil surface spray, insecticide-treated stem cutting (Example 6); conditions: 3 cm stem cutting treated with clothianidin, thiamethoxiam, imidacloprid, dinotefuran, nitenpyram, acetamiprid or thiacloprid, four weeks after treatment
Method: A 30 cm to 40 cm stem cutting of sugar cane is placed on a wet soil, and germination is stimulated. The stem cutting from which a bud has grown to about 1 cm is selected, and the length of the stem cutting is adjusted to be 3 cm so that the stem cutting has one node. Clothianidin, thiamethoxiam, imidacloprid, dinotefuran, nitenpyram, acetamiprid or thiacloprid is adhered to the stem cutting. A soil is packed into a plastic pot, and seeds of Amaranthus retroflexus are seeded thereon. The stem cutting of sugar cane treated with clothianidin, thiamethoxiam, imidacloprid, dinotefuran, nitenpyram, acetamiprid or thiacloprid is planted in the soil packed into the pot at a depth of 2 cm. […] Thereafter, the pot for a test is placed in a greenhouse.

Amaranthus retroflexus [4] = assay: Herbicidal activity, spray above weed before planting, insecticide-treated stem cutting (Example 7); conditions: sprayed above weed, 3 cm stem cutting treated with clothianidin, thiamethoxiam, imidacloprid, dinotefuran, nitenpyram, acetamiprid or thiacloprid planted one week after treatment, four weeks after treatment
Method: as §1
A 30 cm to 40 cm stem cutting of sugar cane is placed on a wet soil, and germination is stimulated. The stem cutting from which a bud has grown to about 1 cm is selected, and the length of the stem cutting is adjusted to be 3 cm so that the stem cutting has one node. Clothianidin, thiamethoxiam, imidacloprid, dinotefuran, nitenpyram, acetamiprid or thiacloprid is adhered to the stem cutting.
as §2

Amaranthus retroflexus [5] = assay: Herbicidal activity, soil surface spray, strobilurin-treated stem cutting (Example 8); conditions: 3 cm stem cutting treated with kresoxim-methyl, azoxystrobin or another listed strobilurin fungicide, four weeks after treatment
Description: A 30 cm to 40 cm stem cutting of sugar cane is placed on a wet soil, and germination is stimulated. The stem cutting from which a bud has grown to about 1 cm is selected, and the length of the stem cutting is adjusted to be 3 cm so that the stem cutting has one node. Kresoxim-methyl, azoxystrobin, trifloxystrobin, fluoxastrobin, picoxystrobin, pyraclostrobin, dimoxystrobin, pyribencarb, metominostrobin, orysastrobin, enestrobin, pyraoxystrobin or pyrametostrobin is adhered to the stem cutting. A soil is packed into a plastic pot, and seeds of Amaranthus retroflexus are seeded thereon. The stem cutting of sugar cane treated with kresoxim-methyl, azoxystrobin, trifloxystrobin, fluoxastrobin, picoxystrobin, pyraclostrobin, dimoxystrobin, pyribencarb, metominostrobin, orysastrobin, enestrobin, pyraoxystrobin or pyrametostrobin is planted in the soil packed into the pot at a depth of 2 cm. […] Thereafter, the pot for a test is placed in a greenhouse.

Amaranthus retroflexus [6] = assay: Herbicidal activity, spray above weed before planting, strobilurin-treated stem cutting (Example 9); conditions: sprayed above weed, 3 cm stem cutting treated with kresoxim-methyl, azoxystrobin or another listed strobilurin fungicide planted one week after treatment, four weeks after treatment
Method: as §1
A 30 cm to 40 cm stem cutting of sugar cane is placed on a wet soil, and germination is stimulated. The stem cutting from which a bud has grown to about 1 cm is selected, and the length of the stem cutting is adjusted to be 3 cm so that the stem cutting has one node. Kresoxim-methyl, azoxystrobin, trifloxystrobin, fluoxastrobin, picoxystrobin, pyraclostrobin, dimoxystrobin, pyribencarb, metominostrobin, orysastrobin, enestrobin, pyraoxystrobin or pyrametostrobin is adhered to the stem cutting.
as §2

Amaranthus retroflexus [7] = assay: Herbicidal activity, soil surface spray, azole-fungicide-treated stem cutting (Example 10); conditions: 3 cm stem cutting treated with azaconazole, bitertanol or another listed azole-type fungicide, four weeks after treatment
Description: A 30 to 40 cm stem cutting of sugar cane is placed on a wet soil, and germination is stimulated. The stem cutting from which a bud has grown to about 1 cm is selected, and the length of the stem cutting is adjusted to be 3 cm so that the stem cutting has one node. Azaconazole, bitertanol, bromoconazole, cyproconazole, difenoconazole, diniconazole, epoxyconazole, fenbuconazole, fluquinconazole, flusilazole, flutriafol, hexaconazole, imibenconazole, ipconazole, metconazole, myclobutanil, penconazole, propiconazole, prothioconazole, simeconazole, tebuconazole, tetraconazole, triadimenol, triticonazole, fenarimol, nuarimol, pyrifenox, imazalil, oxpoconazole fumarate, pefurazoate, procloraz or triflumizole is adhered to the stem cutting. A soil is packed into a plastic pot, and seeds of Amaranthus retroflexus are seeded thereon. The stem cutting of sugar cane treated with azaconazole, bitertanol, bromoconazole, cyproconazole, difenoconazole, diniconazole, epoxyconazole, fenbuconazole, fluquinconazole, flusilazole, flutriafol, hexaconazole, imibenconazole, ipconazole, metconazole, myclobutanil, penconazole, propiconazole, prothioconazole, simeconazole, tebuconazole, tetraconazole, triadimenol, triticonazole, fenarimol, nuarimol, pyrifenox, imazalil, oxpoconazole fumarate, pefurazoate, procloraz or triflumizole is planted in the soil packed into the pot at a depth of 2 cm. […] Thereafter, the pot for a test is placed in a greenhouse.

Amaranthus retroflexus [8] = assay: Herbicidal activity, spray above weed before planting, azole-fungicide-treated stem cutting (Example 11); conditions: sprayed above weed, 3 cm stem cutting treated with azaconazole, bitertanol or another listed azole-type fungicide planted one week after treatment, four weeks after treatment
Method: A soil is packed into a plastic pat, and seeds of Amaranthus retroflexus are seeded thereon. Thereafter, the pot is placed in a greenhouse, and the weed is grown.
A 30 cm to 40 cm stem cutting of sugar cane is placed on a wet soil, and germination is stimulated. The stem cutting from which a bud has grown to about 1 cm is selected, and the length of the stem cutting is adjusted to be 3 cm so that the stem cutting has one node.
as §2

Amaranthus retroflexus [9] = assay: Herbicidal activity, soil surface spray, metalaxyl-treated stem cutting (Example 12); conditions: 3 cm stem cutting treated with metalaxyl or metalaxyl-M, four weeks after treatment
Method: A soil is packed into a plastic pot. Seeds of Amaranthus retroflexus are seeded thereon.

Amaranthus retroflexus [10] = assay: Herbicidal activity, spray above weed before planting, metalaxyl-treated stem cutting (Example 13); conditions: sprayed above weed, 3 cm stem cutting treated with metalaxyl or metalaxyl-M planted one week after treatment, four weeks after treatment
Method: A soil is packed into a plastic pot, and seeds of Amaranthus retroflexus are seeded thereon. Thereafter, a pot is placed in a greenhouse, and the weed is grown.
A 30 cm to 40 cm stem cutting of sugar cane is placed on a wet soil, and germination is stimulated. The stem cutting from which a bud has grown to about 1 cm is selected, and the length of the stem cutting is adjusted to be 3 cm so that the stem cutting has one node. Metalaxyl or metalaxyl-M is adhered to the stem cutting.
as §2

## CS(=O)(=O)NC(=O)c1cc(Oc2ccc(C(F)(F)F)cc2Cl)ccc1[N+](=O)[O-] [fomesafen]
Amaranthus retroflexus [1]
  herbicidal activity against Amaranthus retroflexus: the controlling effect on a weed can be confirmed
Amaranthus retroflexus [2]
  herbicidal activity against Amaranthus retroflexus: the controlling effect on a weed can be confirmed
Amaranthus retroflexus [3]
  herbicidal activity against Amaranthus retroflexus: the controlling effect on a weed can be confirmed
Amaranthus retroflexus [4]
  herbicidal activity against Amaranthus retroflexus: the controlling effect on a weed can be confirmed
Amaranthus retroflexus [5]
  herbicidal activity against Amaranthus retroflexus: the controlling effect on a weed can be confirmed
Amaranthus retroflexus [6]
  herbicidal activity against Amaranthus retroflexus: the controlling effect on a weed can be confirmed
Amaranthus retroflexus [7]
  herbicidal activity against Amaranthus retroflexus: the control effect on a weed can be confirmed
Amaranthus retroflexus [8]
  herbicidal activity against Amaranthus retroflexus: the controlling effect on a weed can be confirmed
Amaranthus retroflexus [9]
  herbicidal activity against Amaranthus retroflexus: the controlling effect on a weed can be confirmed
Amaranthus retroflexus [10]
  herbicidal activity against Amaranthus retroflexus: the controlling effect on a weed can be confirmed
